Assay [1] has as its system Botrytis cinerea mycelium, strain 916T. Description: Inhibition of the growth of Botrytis cinerea mycelium on malt medium containing resveratrol. The format is cell-based. How it is done:
FIG. 9: Inhibition of the growth of Botrytis cinerea mycelium, strain 916T, after 7 days at 20° C.
The mycelium is cultured on a malt/glucose medium containing different concentrations of resveratrol.
A study was carried out of the action of the molecule on the growth of mycelial hyphae of Botrytis cinera in culture on a malt/agar medium containing a resveratrol dilution range of from 10^−1 M to 3.7.10^−3 M, with the hyphae being incubated at ambient temperature for 7 days. […] However, this inhibition […] progressively after 7 days of culture under these conditions, which are otherwise very favourable to the growth of the fungus. After 20 days, the fungus finally infects the whole of the culture surface.

The test system of assay [2] is zoospores of Plasmopora viticola. The note with it: according to DAÏ (1994); cited from earlier work.
For another assay, the system named is Botrytis cinerea conidia. The conditions noted are these: according to PONT and PEZET (1990); cited from earlier work.

Broadly, the IC50 is the concentration that inhibits the measured activity by half. In the case of `Oc1ccc(C=Cc2cc(O)cc(O)c2)cc1` [resveratrol], the half-inhibitory concentration (IC50) in assay [1] (Botrytis cinerea, 168 h, read-out: inhibitory effect on growth of mycelial hyphae (IC50), malt/agar medium, 7 days, ambient temperature (FIG. 9: 20° C.)) is 500 µM. Also, the “inhibitory activity on the growth of the mycelium” value in assay [1] (at 37 μmol.^−1, 7 days) is given as “very slight inhibitory activity”. The “concentrations giving an exponential decrease in the mean growth diameter of the fungus” value in assay [1] (malt/agar medium, 7 days) was “greater than 125 μmol.1^−1”. Further, in assay [2], the “effect on the development of the zoospores” value is listed as “inhibitory effect”. In addition, the “blocking of germination of conidia” value in the assay with Botrytis cinerea conidia is “does not block”.

(Values after patent US6800794B1, “Nucleic acid comprising the sequence of a promoter unductible by stress and a gene sequence coding for a stilbene synthase” (Champagne Moet & Chandon, priority 1998, dated 2004).)
